Measured values as given in patent US20230035578A1, “CONTROLLED RELEASE OF COMPOUNDS” (TECHNISCHE UNIVERSITAET MUENCHEN, priority 2019, published 2023).
Structures can show the parent of a compound that is named as a salt.

Assay: Drug release from surface-bound mucin layer on PDMS (UV absorbance)
Assay type: physicochemical
Procedure: The coupling reaction was performed as described previously^9. Briefly, PDMS was treated with O2 plasma at 0.4 mbar pressure and an intensity of 30 W for 90 s. The plasma treatment replaces the […] groups on the polymer surface with hydroxyl groups, which enables a covalent attachment of silane molecules. The silane was used as a coupling agent to further allow for attaching porcine gastric mucin to the surface via carbodiimide coupling. Thus, we here used N-[3-Trimethoxysilyl)propyl]ethylenediamine triacetic acid trisodium salt (TMS-EDTA, abcr, Karlsruhe, Germany), which carries three carboxy groups on the other end. TMS-EDTA was diluted to a final concentration of 0.1% (w/v) in 10 mM Acetate buffer (pH=4.5). The activated PDMS samples were then incubated in the silane solution for 5 h at 60° C. Afterwards, the samples were washed in 80% ethanol (Carl Roth) for 1 h to remove unbound residues before they were placed in the oven at 60° C. for another 60 min to stabilize the bond between the PDMS and the silane.
In the next step, the carboxyl groups of the silane were activated. Therefore, the surface was covered with 100 mM MES buffer (pH=5.0) containing 5 mM 1-Ethyl-3-(3-dimethylaminopropyl)-carbodiimid-hydrochloride (EDC, Carl Roth) and 5 mM N-Hydroxysulfosuccinimide (sulfo-NHS, abcr) at RT for 30 min. Afterwards, the EDC-NHS solution was replaced by phosphate-buffered saline (pH=7.4, Lonza, Velviers, Belgium) containing 0.1% (w/v) of purified mucin and stored at 4° C. overnight. Amine groups from the mucin protein core then react with the EDC activated groups of the silane and form a stable covalent bond.
PDMS was allowed to crosslink at 60° C. overnight. Afterwards, this PDMS layer was coated with mucin as described in Section 1.2.
The mucin layer was loaded with the drug by incubating it in a drug-containing solution (TCL or VAC, 0.5 mg/mL) at 4° C. overnight. […] […] Before starting the release experiment, excessive glycerol, drug, and salt were removed and replaced by 2 mL of ultrapure water.
The […], and the release of TCL was tracked spectroscopically with a specord210 spectral photometer (Analytikjena, Jena, Germany) at 360 nm. The amount of released drug was determined by a standard curve which was generated by measuring serial dilutions of a drug solution (see FIG. 1). The release of VAN was also tracked spectroscopically, however, at 282 nm (for calibration curve, see FIG. 2).

For `CN[C@H](CC(C)C)C(=O)N[C@H]1C(=O)N[C@@H](CC(N)=O)C(=O)N[C@H]2C(=O)N[C@H]3C(=O)N[C@H](C(=O)N[C@H](C(=O)O)c4cc(O)cc(O)c4-c4cc3ccc4O)[C@H](O)c3ccc(c(Cl)c3)Oc3cc2cc(c3O[C@@H]2O[C@H](CO)[C@@H](O)[C@H](O)[C@H]2O[C@H]2C[C@](C)(N)[C@H](O)[C@H](C)O2)Oc2ccc(cc2Cl)[C@H]1O` [Vancomycin, Vancomycin hydrochloride], the “CTCL, vancomycin release” value (Group 1: glycerol, Mg^2+, trigger 150 mM NaCl, time 0 h) was 0.0014 ± 0.0010 mg/mL, the “CTCL, vancomycin release” value (Group 1: glycerol, Mg^2+, trigger 150 mM NaCl, time 0.5 h) was 0.0051 ± 0.0029 mg/mL and the “CTCL, vancomycin release” value (Group 1: glycerol, Mg^2+, trigger 150 mM NaCl, time 1.0 h) was 0.0083 ± 0.0042 mg/mL. For the same compound, the “CTCL, vancomycin release” value (Group 1: glycerol, Mg^2+, trigger 150 mM NaCl, time 2.0 h) was 0.0098 ± 0.0031 mg/mL, the “CTCL, vancomycin release” value (Group 1: glycerol, Mg^2+, trigger 150 mM NaCl, time 3.0 h) was 0.0097 ± 0.0029 mg/mL and the “CTCL, vancomycin release” value (Group 2: glycerol, Mg^2+, water, time 0 h) was 0.0008 ± 0.0008 mg/mL. The “CTCL, vancomycin release” value (Group 2: glycerol, Mg^2+, water, time 0.5 h) was 0.0008 ± 0.0011 mg/mL, the “CTCL, vancomycin release” value (Group 2: glycerol, Mg^2+, water, time 1.0 h) was 0.0022 ± 0.0007 mg/mL and the “CTCL, vancomycin release” value (Group 2: glycerol, Mg^2+, water, time 2.0 h) was 0.0007 ± 0.0009 mg/mL. For the same compound, the “CTCL, vancomycin release” value (Group 2: glycerol, Mg^2+, water, time 3.0 h) was 0.0012 ± 0.0006 mg/mL, the “CTCL, vancomycin release” value (Group 3: no condensation, Mg^2+, trigger 150 mM NaCl, time 0 h) was 0.0018 ± 0.0008 mg/mL and the “CTCL, vancomycin release” value (Group 3: no condensation, Mg^2+, trigger 150 mM NaCl, time 0.5 h) was 0.0024 ± 0.0010 mg/mL. The “CTCL, vancomycin release” value (Group 3: no condensation, Mg^2+, trigger 150 mM NaCl, time 1.0 h) was 0.0034 ± 0.0009 mg/mL, the “CTCL, vancomycin release” value (Group 3: no condensation, Mg^2+, trigger 150 mM NaCl, time 2.0 h) was 0.0034 ± 0.0003 mg/mL and the “CTCL, vancomycin release” value (Group 3: no condensation, Mg^2+, trigger 150 mM NaCl, time 3.0 h) was 0.0034 ± 0.0003 mg/mL. For the same compound, the “CTCL, vancomycin release” value (Group 4: no condensation, no stabilization, trigger 150 mM NaCl, time 0 h) was 0.0033 ± 0.0022 mg/mL, the “CTCL, vancomycin release” value (Group 4: no condensation, no stabilization, trigger 150 mM NaCl, time 0.5 h) was 0.0034 ± 0.0014 mg/mL and the “CTCL, vancomycin release” value (Group 4: no condensation, no stabilization, trigger 150 mM NaCl, time 1.0 h) was 0.0022 ± 0.0005 mg/mL. The “CTCL, vancomycin release” value (Group 4: no condensation, no stabilization, trigger 150 mM NaCl, time 2.0 h) was 0.0011 ± 0.0010 mg/mL, the “CTCL, vancomycin release” value (Group 4: no condensation, no stabilization, trigger 150 mM NaCl, time 3.0 h) was 0.0013 ± 0.0011 mg/mL and the “release after exposure to physiological trigger” value (Mg^2+, 150 mM NaCl) was “release was observed”. For the same compound, the “release where the trigger was absent” value (Mg^2+, no trigger) was “almost no release was observed”.
